Test results published in EPA's ToxValDB 9.5.
In brackets after ≈: the same amount, converted by molar mass.

Legend:
Bibionidae = conditions: chronic/long-term
Canidae = conditions: Dog Other
Colinus virginianus = conditions: for LD50: acute, oral, mortality
Daphnia magna = conditions: chronic/long-term; duration: 21 days; reproduction
Tagia sp. = conditions: for LC50: acute, duration: 14 days
Typhlodromus pyri = test: LR50; higher = less toxic; conditions: not reported; mortality
[1] = system: Vigna radiata var. radiata; conditions: not reported; other
Anas platyrhynchos = conditions: for LC50: short-term, oral, feed, mortality
Bird = conditions: acute; oral; unspecified; mortality
Coturnix coturnix = conditions: acute; oral; mortality
Mus musculus = conditions: acute; oral; F; mortality
Coturnix japonica = conditions: reproduction developmental
Sus scrofa = conditions: oral, Not specified
Danio rerio = conditions: acute; duration: 96 hours; mortality
Equus caballus [2] = conditions: acute; oral; unspecified; mortality
Meleagris sp. = conditions: chronic/long-term; duration: 16 weeks; oral; feed; M/F; no effects
Numida meleagris = conditions: subchronic; duration: 35 days; oral; feed; no effects
Phasianus sp. = conditions: subchronic; duration: 35 days; oral; feed; food consumption
Equus caballus [3] = test: ALD; higher = less toxic; conditions: acute; oral; unspecified; mortality
Apis mellifera = conditions: acute, duration: 48 hours, mortality
Gasterosteus aculeatus = conditions: acute; duration: 96 hours; mortality
Aphidius rhopalosiphi = test: LR50; higher = less toxic; conditions: acute; duration: 48 hours; mortality
Bovidae = conditions: subchronic; duration: 90 days; neurology
Felidae = conditions: chronic; duration: 420 days; oral; diet; M/F; Cat; neurology
Neovison vison = conditions: chronic; duration: 93 days; oral; diet; neurology
Ovis sp. = conditions: subchronic; duration: 59 days; oral; diet; neurology
Macaca mulatta = conditions: chronic; duration: 183 days; oral; capsule; M/F; clinical chemistry
Lepomis macrochirus = conditions: acute; duration: 96 hours; mortality
Leuciscus idus = conditions: acute; duration: 96 hours; mortality
[4] = chronic, duration: 2 years, clinical chemistry

Nc1c(Cl)cc([N+](=O)[O-])cc1Cl [1-Amino-2,6-dichloro-4-nitrobenzene]
NOEC (Bibionidae): 0.6 mg/L | NOAEL (Canidae; chronic, duration: 1 years, oral, hematological): 2.5 mg/kg-day | NOEC (Colinus virginianus; reproduction developmental): 35.2 mg/kg-day | NOEC (Daphnia magna): 0.032 mg/L | NOEC (Oncorhynchus mykiss; chronic/long-term, duration: 28 days, growth): 0.05 mg/L | NOEL (Rattus norvegicus; reproduction developmental, body weight): 19 mg/kg-day | NOEC (Tagia sp.; chronic/long-term, duration: 56 days): 77.8 mg/kg | LR50 (Typhlodromus pyri): 374 g/ha

Cc1cc(C)[nH]c(=O)n1 [4,6-Dimethylpyrimidin-2-ol]
LC50 (Tagia sp.; no effects): > 1000 mg/kg | NOEC [1]: 2.63 mg/kg

CCOP(=S)(OCC)Oc1nc(Cl)c(Cl)cc1Cl [Chlorpyrifos]
NOEC (Anas platyrhynchos; reproductive, reproduction): 2.88 mg/kg-day | LC50 (Anas platyrhynchos): 71 mg/kg-day | LD50 (Bird): 122 mg/kg | NOAEL (Canidae; [4]): 0.1 mg/kg-day | LD50 (Colinus virginianus; duration: 1 hours): 75 mg/kg | LD50 (Coturnix coturnix): 13.3 mg/kg | LD50 (Mus musculus): 64 mg/kg | NOAEL (Rattus norvegicus; acute, clinical chemistry): 0.5 mg/kg-day | NOAEL (Rattus norvegicus; [4]): 0.1 mg/kg-day | NOAEL (Rattus norvegicus; reproduction developmental): 1 mg/kg-day | NOAEL (Rattus norvegicus; reproduction developmental, clinical chemistry): 0.1 mg/kg-day

O=c1oc2ccccc2c(O)c1C1CC(c2ccc(-c3ccccc3)cc2)Cc2ccccc21 (stereo not given) [Difenacoum]
LC50 (Anas platyrhynchos): 3.5 mg/kg-day | LD50 (Canidae; acute, oral, mortality): 50 mg/kg-day | LD50 (Colinus virginianus): 56 mg/kg-day | NOEC (Coturnix japonica): > 0.01 mg/kg-day | LC50 (Oncorhynchus mykiss; acute, duration: 96 hours, mortality): 0.064 µg/mL (≈ 0.144 µM) | NOAEL (Oryctolagus sp.; reproduction developmental, hematological): 0.005 mg/kg-day | LD50 (Rattus norvegicus; acute, oral, mortality): 1.8 mg/kg-day | LD50 (Sus scrofa; acute, mortality): 80 mg/kg-day

CC[C@@H](C(=O)[C@@H](C)[C@@H](O)[C@H](C)CCc1ccc(C)c(O)c1C(=O)[O-])[C@H]1O[C@](CC)([C@H]2CC[C@](O)(CC)[C@H](C)O2)C[C@@H]1C.[Na+] [Lasalocid sodium]
LEL (Canidae; repeat dose other, oral, diet, clinical signs): 5 mg/kg-day | LC50 (Danio rerio): 2.5 µg/mL | LD50 (Equus caballus [2]): 15 mg/kg | LEL (Gallus gallus; subchronic, duration: 13 weeks, M/F, growth): 225 mg/kg-day | LEL (Meleagris sp.): 375 mg/kg | LEL (Numida meleagris): 240 mg/kg | NOEL (Oryctolagus sp.; developmental, duration: 23 days, oral, gavage, F, New Zealand, development): 0.5 mg/kg-day | LEL (Phasianus sp.): 180 mg/kg | NOEL (Rattus norvegicus; chronic, duration: 2 years, oral, M, organ weight): 0.5 mg/kg-day | LC50 (Tagia sp.; mortality): 71.8 mg/kg | ALD (Equus caballus [3]): 15 mg/kg

CCOC(=O)CC(SP(=S)(OC)OC)C(=O)OCC (stereo not given) [Malathion]
LD50 (Apis mellifera; dermal): 0.16 µg/piece | NOEC (Daphnia magna): 6e-05 mg/L | LC50 (Gasterosteus aculeatus): 0.022 µg/mL (≈ 0.0666 µM) | NOEC (Oncorhynchus mykiss; chronic/long-term, duration: 97 days, morphology): 0.021 mg/L | NOAEL (Rattus norvegicus; chronic, duration: 2 years, neurology): 29 mg/kg-day | NOAEL (Rattus norvegicus; subchronic, duration: 90 days, neurology): 34 mg/kg-day | LC50 (Tagia sp.; mortality): 613 mg/kg | LR50 (Aphidius rhopalosiphi): 0.0612 g/ha

[CH3][Hg+] [Methyl mercury(II) cation]
LOAEL (Anas platyrhynchos; reproductive, development): 5 mg/kg | NOAEL (Bovidae): 0.1 mg/kg-day | LOAEL (Canidae; chronic, duration: 385 days, oral, neurology): 0.12 mg/kg-day | NOAEL (Felidae): 0.02 mg/kg-day | NOAEL (Gallus gallus; reproduction developmental, duration: 50 days, F, reproduction): 0.75 mg/kg-day | LOAEL (Neovison vison): 0.18 mg/kg-day | NOAEL (Oncorhynchus mykiss; chronic/long-term, duration: 112 days, oral, feed, hematological): 0.17 mg/kg-day | LOAEL (Ovis sp.): 0.225 mg/kg-day | NOAEL (Sus scrofa; subchronic, duration: 60 days, diet, histopathology: nonneoplastic): 0.19 mg/kg-day

O=S(=O)(O)C(F)(F)C(F)(F)C(F)(F)C(F)(F)C(F)(F)C(F)(F)C(F)(F)C(F)(F)F [Perfluorooctanesulfonic acid]
NOAEL (Macaca mulatta): 0.03 mg/kg-day

CC(COc1ccc(Oc2ccccc2)cc1)Oc1ccccn1 (stereo not given) [Pyriproxyfen]
LD50 (Apis mellifera; oral, unspecified): 74 µg/piece | NOEC (Bibionidae; duration: 28 days, other): 0.01 mg/L | NOEC (Daphnia magna): 1.5e-05 mg/L | LC50 (Lepomis macrochirus): > 0.27 µg/mL | NOEC (Oncorhynchus mykiss; chronic/long-term, duration: 95 days): 0.0043 mg/L

CN(C)C.Cl [Trimethylamine hydrochloride]
LC50 (Leuciscus idus): > 500 µg/mL | NOAEL (Rattus norvegicus; subchronic, duration: 90 days): 144 mg/kg-day
